{
  "source": "patent US20230012368A1",
  "about": "(Hoffmann-La Roche Inc., priority 2018, published 2023)",
  "note": "Counter-ions that a name gives are not always drawn.",
  "data": [
    {"test_system": "Acinetobacter baumannii ATCC 17978", "experiment": "Antimicrobial susceptibility testing: 90% growth inhibitory concentration (IC90) determination", "assay_type": "cell-based", "details": "90% growth inhibitory concentration; Acinetobacter baumannii ATCC17978; Iso-Sensitest broth, OD 600 nm over 16h; read-out: ATCC17978 IC90", "method_in_brief": "(§1)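 Growth of the Acinetobacter baumannii strain was followed by optical density at 600 nm every 20 minutes for 16h at 35±2° C. Inoculum was ~5×10^(5) CFU/ml in Iso-Sensitest medium, with twofold compound dilutions (e.g. 50 to 0.097 μM final). The 90% inhibitory concentration was derived in log-phase growth.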", "units": {"IC90": "nM"}, "values": [
      {"smiles": "COc1ccc(-c2cnc3c(Nc4ccc(C(=O)NCCCCCCCN)c(C)c4)nccn23)c(F)c1F", "note": "[Example 516, N-(7-aminoheptyl)-4-((3-(2,3-difluoro-4-methoxyphenyl)imidazo[1,2-a]pyrazin-8-yl)amino)-2-methylbenzamide hydrochloride]", "IC90": 34}
    ]},
    {"test_system": "Acinetobacter baumannii ATCC 17978", "experiment": "Antimicrobial susceptibility testing: 90% growth inhibitory concentration (IC90) determination", "assay_type": "cell-based", "details": "Acinetobacter baumannii, ATCC17978, 16 h, 90% growth inhibitory concentration; Acinetobacter baumannii ATCC17978; Iso-Sensitest broth, OD 600 nm over 16h; read-out: ATCC17978 IC90", "method_in_brief": "as §1", "units": {"IC90": "nM"}, "values": [
      {"smiles": "CCc1cc(Nc2nccn3c(-c4ccc(OC)c(F)c4F)cnc23)ccc1C(=O)N[C@@H](CC)CN", "note": "[Example 489, N-[(1S)-1-(aminomethyl)propyl]-4-[[3-(2,3-difluoro-4-methoxy-phenyl)imidazo[1,2-a]pyrazin-8-yl]amino]-2-ethyl-benzamide; formic acid]", "IC90": 500},
      {"smiles": "COc1ccc(-c2cnc3c(Nc4ccc(C(=O)N5CCN(C(=O)[C@@H]6C[C@@](C)(O)CN6)CC5)c(C)c4)nccn23)c(F)c1F", "note": "[Example 362, [4-[[3-(2,3-difluoro-4-methoxyphenyl)imidazo[1,2-a]pyrazin-8-yl]amino]-2-methylphenyl]-[4-[(2S,4R)-4-hydroxy-4-methylpyrrolidine-2-carbonyl]piperazin-1-yl]methanone]", "IC90": 80},
      {"smiles": "CN(CCC1CCNCC1)C(=O)c1ccc(Nc2nccn3c(-c4ccc(OC(F)F)cc4)cnc23)cc1Cl", "note": "[Example 23, 2-chloro-4-((3-(4-(difluoromethoxy)phenyl)imidazo[1,2-a]pyrazin-8-yl)amino)-N-methyl-N-(2-(piperidin-4-yl)ethyl)benzamide hydrochloride]", "IC90": 150},
      {"smiles": "COc1ccc(-c2cnc3c(Nc4ccc(C(=O)NCCCCCN)c(C)c4)nccn23)c(F)c1F", "note": "[Example 491, N-(5-aminopentyl)-4-((3-(2,3-difluoro-4-methoxyphenyl)imidazo[1,2-a]pyrazin-8-yl)amino)-2-methylbenzamide hydrochloride]", "IC90": 41},
      {"smiles": "CCc1cc(Nc2nccn3c(-c4ccc(Oc5ccncn5)c(F)c4F)cnc23)ccc1C(=O)NCCNC(=O)CCN", "note": "[Example 432, N-[2-(3-aminopropanoylamino)ethyl]-4-[[3-(2,3-difluoro-4-pyrimidin-4-yloxy-phenyl)imidazo[1,2-a]pyrazin-8-yl]amino]-2-ethyl-benzamide; formic acid]", "IC90": 500},
      {"smiles": "CCc1cc(Nc2nccn3c(-c4ccc(OCC#N)c(F)c4F)cnc23)ccc1C(=O)NCCNC(=O)[C@@H](N)CO", "note": "[Example 135, N-[2-[[(2S)-2-amino-3-hydroxy-propanoyl]amino]ethyl]-4-[[3-[4-(cyanomethoxy)-2,3-difluoro-phenyl]imidazo[1,2-a]pyrazin-8-yl]amino]-2-ethyl-benzamide formate]", "IC90": 90},
      {"smiles": "CCc1cc(Nc2nccn3c(-c4ccc(OC)c(F)c4F)cnc23)ccc1C(=O)NCCNC(=O)CN", "note": "[Example 368, N-[2-[(2-aminoacetyl)amino]ethyl]-4-[[3-(2,3-difluoro-4-methoxyphenyl)imidazo[1,2-a]pyrazin-8-yl]amino]-2-ethylbenzamide]", "IC90": 120},
      {"smiles": "CN(CCCSc1nc(=O)c(=O)[nH]n1C)C(=O)c1ccc(Nc2nccn3c(-c4ccc(OCC#N)c(F)c4F)cnc23)cc1Cl", "note": "[Example 395, 2-chloro-4-((3-(4-(cyanomethoxy)-2,3-difluorophenyl)imidazo[1,2-a]pyrazin-8-yl)amino)-N-methyl-N-(3-((2-methyl-5,6-dioxo-1,2,5,6-tetrahydro-1,2,4-triazin-3-yl)thio)propyl)benzamide]", "IC90": 740},
      {"smiles": "COc1ccc(-c2cnc3c(Nc4ccc(C(=O)NCCCN5CCNCC5)c(C)c4)nccn23)c(F)c1F", "note": "[Example 67, 4-((3-(2,3-difluoro-4-methoxyphenyl)imidazo [1,2-a]pyrazin-8-yl)amino)-2-methyl-N-(3-(piperazin-1-yl)propyl)benzamide]", "IC90": 120},
      {"smiles": "CCc1cc(Nc2nccn3c(-c4ccc(OC)c(F)c4F)cnc23)ccc1C(=O)NCC1CCN(C(=N)N)CC1", "note": "[Example 298, N-[(1-carbamimidoylpiperidin-4-yl)methyl]-4-[[3-(2,3-difluoro-4-methoxyphenyl)imidazo[1,2-a]pyrazin-8-yl]amino]-2-ethylbenzamide]", "IC90": 170}
    ]}
  ]
}
